Target: T1, DTX2 (Homo sapiens, UniProt Q86UW9)
T1 sequence (Q86UW9 1-622): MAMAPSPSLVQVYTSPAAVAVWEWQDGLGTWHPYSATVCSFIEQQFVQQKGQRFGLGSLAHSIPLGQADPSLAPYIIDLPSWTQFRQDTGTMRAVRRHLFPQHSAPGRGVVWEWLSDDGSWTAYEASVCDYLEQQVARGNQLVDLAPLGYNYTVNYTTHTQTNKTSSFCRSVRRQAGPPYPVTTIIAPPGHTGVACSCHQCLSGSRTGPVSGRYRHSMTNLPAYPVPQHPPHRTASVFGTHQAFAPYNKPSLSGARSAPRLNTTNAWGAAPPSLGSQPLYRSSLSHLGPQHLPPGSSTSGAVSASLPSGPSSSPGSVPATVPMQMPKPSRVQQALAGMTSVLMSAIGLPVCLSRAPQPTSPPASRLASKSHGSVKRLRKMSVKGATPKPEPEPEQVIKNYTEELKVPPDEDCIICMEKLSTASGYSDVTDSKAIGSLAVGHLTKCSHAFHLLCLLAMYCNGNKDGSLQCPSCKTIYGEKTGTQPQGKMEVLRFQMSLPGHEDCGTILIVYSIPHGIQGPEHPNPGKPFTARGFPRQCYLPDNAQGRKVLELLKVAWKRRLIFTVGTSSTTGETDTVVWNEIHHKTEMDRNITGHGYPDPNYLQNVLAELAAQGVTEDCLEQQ
Assay: ubiquitylation of OP-ADPr, ion exchange and intact mass spectrometry
Format: biochemical
Conditions: co-substrate purified E2~Ub conjugate; pH 7.4, 37 °C, 150 mM NaCl

## C#CCO[C@H]1O[C@H](COP(=O)(O)OP(=O)(O)OC[C@H]2O[C@@H](n3cnc4c(N)ncnc43)[C@H](O)[C@@H]2O)[C@@H](O)[C@H]1O [compound 8, OP-ADPr]
  ubiquitylation of OP-ADPr, ion exchange and intact mass spectrometry: We next coupled Ub to OP-ADPr using DTX2 to generate an ester-linked Ub-OP-ADPr
